Patent US20100297225A1, “SUSTAINED-RELEASE PHARMACEUTICAL FORMULATION CONTAINING AN ANTIMUSCARINIC AGENT AND A WETTING AGENT AS WELL AS A PROCESS FOR THE PREPARATION THEREOF” (PHARMATHEN S.A., priority 2007, published 2010)
Where a name gives a salt, the structure may show the parent alone.

Assays:
[1] = Flowability and compressibility (Carr's Index); type: physicochemical
Source text: The pharmaceutical composition is characterized by excellent pharmacotechnical properties, such as homogeneity, flowability and compressibility.

[2] = X-RD analysis of crystalline form after storage; type: physicochemical; conditions: 3 months storage, normal and accelerated conditions (40°C and 75% RH)
Experimental: As shown in FIG. 1 by the X-RD analysis Tolterodine Tartrate is in crystalline form and all the recorded characteristic broad peaks (approximate 20 values=12.55, 16.40, 20.00, 21.20, 22.75, 23.80, 25.65, 27.45, 34.60 and 37.60) were unchanged after 3 months storage in both normal and accelerated conditions (40° C. and 75% RH). The crystal properties remain also unchanged after three months in the same conditions when the mixture is incorporated in a pharmaceutical composition with other excipients.

Cc1ccc(O)c([C@H](CCN(C(C)C)C(C)C)c2ccccc2)c1 [Tolterodine Tartrate, (R)—N,N-diisopropyl-3-(2-hydroxy-5-methylphenyl)-3-phenylpropylamine]
mean Carr's Index [1]: 38.7%
X-RD characteristic peaks of crystalline form after storage [2]: unchanged
